Laboratory results: US20240366616A1, “SOLUBLE PHARMACEUTICAL COMPOSITIONS COMPRISING SALTS OF DISUBSTITUTED 1, 2, 4-TRIAZINE COMPOUND” (Mineralys Therapeutics, Inc., priority 2021, published 2024)
Values belong to the compound of their own block, whether it stands above or below them.

Tests used:
Format in all cases: physicochemical
[1] = Water solubility of API free base
[2] = Powder x-ray diffraction of ALDSI stored with a metal salt (croscarmellose Na); settings: 3 days storage with croscarmellose Na, 60° C./75% RH
Experimental: FIG. 1: Powder x-ray diffraction peaks detected from MLS-101 after 3 days of storage with a metal salt (croscarmellose Na) (storage conditions: 60° C./75% RH).
ALDSI-derived peaks were detected after 3 days of storage of ALDSI with a metal salt (croscarmellose Na). (storage conditions: 60° C./75% RH)

[3] = Dissolution test of ALDSI (JP Paddle Method, JP Second Fluid) and XRPD after storage or processing of API alone
Experimental: Storage conditions: 25° C./60% RH, 40° C./75% RH, and 60° C./75% RH (relative humidity) in an open container
Sampling time points: 3 days and 1 week
Test method: JP Apparatus for Paddle Method (Apparatus 2)
Revolutions: 50 rpm for 0-30 min, and 250 rpm for 30 min.
Dissolution medium: JP Second Fluid for dissolution test (A mixture of phosphate buffer solution (pH 6.8) and water (1:1), as described in the Japanese Pharmacopoeia.)

[4] = Stability test of 10% API capsules: purity test (related substances); settings: Initial
Experimental: Metal salt-free excipients were selected.
D-Mannitol and talc were mixed and sieved. The API was added to the sieved mixture, blended, sieved, and filled in HPMC capsules.

[5] = Study II of tablets: purity test (related substances) after storage; settings: Initial
Excerpt: API granules, a disintegrant, and lubricants were mixed in a polyethylene bag. After confirming pressure dependency, the mixture was subjected to sequential tableting (900 kilogram of force, i.e. about 8826 Newtons).

Solubility in water [1]: poorly soluble in water
SMILES: CC(=O)N[C@H]1CC[C@H](NC(=O)CN2CCN(c3nncc(-c4ccc(C)cc4)n3)CC2)CC1 [API free base]

Dissolution changes over time ([3]; compressed API alone stored at 60° C./75% RH for 3 days or 1 week): no changes in dissolution over time | Dissolution changes over time ([3]; ground API alone stored at 60° C./75% RH for 3 days or 1 week): no changes in dissolution over time | Individual related substances RRT 0.95 [4]: 0.10% | Individual related substances RRT 0.96 [4]: 0.04% | Individual related substances RRT 0.98 [4]: 0.11% | Individual related substances RRT 1.18 [4]: 0.47% | Individual related substances RRT 1.19 [4]: 0.03% | Total related substances [4]: 0.75% | Individual related substances RRT 0.81 [5]: 0.11% | Individual related substances RRT 0.85 [5]: 0.02% | Individual related substances RRT 1.09 [5]: 0.02% | Individual related substances RRT 1.13 [5]: 0.02% | Individual related substances RRT 1.35 [5]: 0.02% | Individual related substances RRT 1.43 [5]: 0.02% | Individual related substances RRT 1.69 [5]: 0.02% | Total related substances [5]: 0.23%
SMILES: CC(=O)N[C@H]1CC[C@H](NC(=O)CN2CCN(c3nncc(-c4ccc(C)cc4)n3)CC2)CC1 [ALDSI]
Propensity toward disproportionation in the presence of a metal salt [2]: high propensity toward disproportionation | Dissolution differences among samples ([3]; API alone compressed at 300, 600, and 900 kilograms of force): no differences in dissolution among samples | Dissolution differences among samples ([3]; API alone ground for 1, 3, 20, and 30 min): no differences in dissolution among samples | Dissolution differences among samples ([3]; API alone kneaded with large, middle, and small amounts of water): no differences in dissolution among samples | Dissolution delay / new XRPD peaks after storage ([3]; API alone, 25° C./60% RH, 40° C./75% RH, 60° C./75% RH open container, 3 days and 1 week): no delay of dissolution or appearance of new peaks on XRPD
